Key:
[1] = biological target: T1, SaCYP76F37v1 (SaCYP76-G11) (Santalum album, UniProt V5RGC8); test: Substrate specificity, yeast microsomes containing SaCYP76F37v1 with various sesquiterpenes; type: biochemical; conditions: 40 μM of substrate, 30° C., 2 hours; for activity at 40 µM: rate of product formation relative to product formation by SaCYP76F39v1 with β-santalene
Procedure: (§1) Assays were performed in 400 μL reaction volumes containing 50 mM potassium phosphate pH 7.5, 0.8 mM NADPH and 40 μM of substrate. Enzyme reactions were initiated by adding 50 μL of the microsomes preparation (prepared in Example 8), incubated at 30° C. for 2 hours with shaking and stopped by adding 500 μL hexane.
(§2) To test the range of substrates used by the clade I and clade II SaCYP76F enzymes, yeast microsomes containing SaCYP76F37v1 (SaCYP76-G11) and SaCYP76F39v1 (SaCYP76-G10) were assayed for their ability to convert various sesquiterpenes, including the substrates α-santalene and β-santalene and 7 additional sesquiterpenes which resemble santalenes in the acyclic isoprenyl side chain, including α-curcumene, zingiberine, β-bisabolene, β-sesquiphellandrene, α-bisabolol, trans-β-farnesene and trans-nerolidol. Each substrate was tested using the in vitro assay described in Example 11.B.1.b above.
(§3) The results are shown in Table 15 below, which sets forth the substrates, including their structures, and the relative activities which represent the rate of product formation relative to product formation by SaCYP76F39v1 (SaCYP76-G10) with β-santalene.

[2] = biological target: T2, SaCYP76F39v1 (SaCYP76-G10) (Santalum album, UniProt V5RH69); test: Substrate specificity, yeast microsomes containing SaCYP76F39v1 with various sesquiterpenes; type: biochemical; conditions: 40 μM of substrate, 30° C., 2 hours; for activity at 40 µM: rate of product formation relative to product formation by SaCYP76F39v1 with β-santalene
Procedure: as §1, §2, §3

[3] = biological target: T2, SaCYP76F39v1 (SaCYP76-G10); test: In vitro assay 2, microsomes containing SaCYP76F39v1 with a mixture of santalenes and bergamotene; type: biochemical; conditions: substrate mixture of santalenes and bergamotene; no product in the absence of NADPH or with empty vector microsomes
Procedure: as §1
Microsomes containing SaCYP76F39v1 (SaCYP76-G10) were assayed for their activity using the assay described in Section B. above.

[4] = test system: SaCYP76F38v1 (SaCYP76-G5); test: Coupled enzyme assay with SaSSy and FPP, microsomes containing SaCYP76F38v1; type: biochemical, Santalum album; conditions: in vitro reaction products of SaSSy and 70 μM FPP, 0.8 mM NADPH, 30° C., 1 hour
Procedure: Coupled enzyme assays with S. album santalene synthase (SaSSy) expressed in bacteria (Jones et al. (2011) J Biol Chem 286:17445-17454) were initiated with 50 μg of His6-tag purified SaSSy and 70 μM farnesyl pyrophosphate (FPP) in TPS buffer (25 mM HEPES pH 7.5, 5 mM MgCl2, 1 mM DTT) in a volume of 450 μL. The assays were incubated for 30 min at 30° C. followed by the addition of 50 μL of the microsome preparation containing a S. album cytochrome P450 and a cytochrome P450 reductase and 0.8 mM NADPH. The reaction was incubated for an additional 1 hour at 30° C. and was stopped by extraction with 500 μL hexane/ethyl acetate (85:15).

[5] = biological target: T1, SaCYP76F37v1 (SaCYP76-G11); test: Oxidation of individual sesquiterpenes by microsomes containing SaCYP76F37v1; type: biochemical; conditions: partially purified substrate fraction, GC-MS
Procedure: as §1
(§4) Microsome preparations containing candidate P450 were assayed for their capacity to oxidize individual sesquiterpenes. The sesquiterpenes were isolated as described in Example 9 above. Three fractions containing mainly α-santalene, α-trans-bergamotene, or epi-β-santalene and β-santalene were used as individual substrates in assays containing clade I P450 SaCYP76F39v1 (SaCYP76-G10) or clade II P450 SaCYP76F37v1 (SaCYP76-G11). The assays were performed as described in Section B.1.b. above and products were identified by comparison to authentic standards (see Table 12 and FIG. 20G).

[6] = biological target: T2, SaCYP76F39v1 (SaCYP76-G10); test: Oxidation of individual sesquiterpenes by microsomes containing SaCYP76F39v1; type: biochemical; conditions: partially purified substrate fraction, GC-MS
Procedure: as §1, §4

[7] = test system: SaCYP76F38v1 (SaCYP76-G5); test: Oxidation of various mono- and sesquiterpene substrates by yeast microsomes containing SaCYP76F38v1; type: biochemical, Santalum album; conditions: 60 to 80 μM of the terpene substrate, 30° C., 1 hour, GC-MS, compared to vector control
Procedure: The reaction mixtures contained 50 mM potassium phosphate, 0.8 mM NADPH and 60 to 80 μM of the terpene substrate in a total volume of 350 μL. Enzyme reactions were started by adding 50 μL of the microsome preparation, incubated at 30° C. for 1 hour with shaking and stopped by extraction with 500 μL of hexane/ethyl acetate (85:15). The organic layer was concentrated under a gentle stream of N2 gas to about 100 μL and analyzed by GC-MS analysis as described in Example 6. […] The reaction products were identified based on matches of the MS fragmentation patterns with entries in the NIST and Wiley libraries (Wiley Registry® 9th Edition/NIST 2011; Fred W. McLafferty, John Wiley & Sons, Inc.).

[8] = biological target: T2, SaCYP76F39v1 (SaCYP76-G10); test: Oxidation of various mono- and sesquiterpene substrates in vitro by SaCYP76F39v1; conditions: product formation the same as that catalyzed by CYP76-G5
Procedure: The reaction mixtures contained 50 mM potassium phosphate, 0.8 mM NADPH and 60 to 80 μM of the terpene substrate in a total volume of 350 μL. Enzyme reactions were started by adding 50 μL of the microsome preparation, incubated at 30° C. for 1 hour with shaking and stopped by extraction with 500 μL of hexane/ethyl acetate (85:15). […] The reaction products were identified based on matches of the MS fragmentation patterns with entries in the NIST and Wiley libraries (Wiley Registry® 9th Edition/NIST 2011; Fred W. McLafferty, John Wiley & Sons, Inc.).

[9] = substrate: CC(C)=CCC[C@]1(C)C2C[C@@H]3[C@H](C2)C31C; test: Kinetic assay with α-santalene or β-santalene as the substrate, SaCYP76F37v1; type: biochemical, Santalum album; conditions: other: apparent Km, 35 pmol P450, substrate 12 to 138 μM, 0.8 mM NADPH, pH 7.5, 30° C., 20 minutes
Procedure: (§5) To test the kinetics of the clade I and clade II SaCYP76F enzymes, kinetic assays were performed with SaCYP76F37v1 (SaCYP76-G11) and SaCYP76F39v1 (SaCYP76-G10) with α-santalene or β-santalene as the substrate. Assays were performed in 400 μL reaction volumes containing 50 mM potassium phosphate pH 7.5, 0.8 mM NADPH and substrate concentrations of 12 to 138 μM of α-santalene or β-santalene. Enzyme reactions were initiated by adding either 17 pmol of SaCYP7639v1 or 35 pmol of SaCYP7637v1, incubated at 30° C. for 20 minutes with shaking and stopped by adding 500 μL hexane. […] Kinetic data were evaluated using tools described in Hernandez and Ruiz ((1998) Bioinformatics. 14:227-228).
(§6) The apparent Km values, kcat values and kcat/Km values for SaCYP76F39v1 (SaCYP76-G10) and SaCYP76F37v1 (SaCYP76-G11) with α-santalene and β-santalene are set forth in Table 14 below.

[10] = substrate: C=C1[C@@H]2CC[C@@H](C2)[C@@]1(C)CCC=C(C)C; test: as above; type: biochemical, Santalum album; conditions: other: apparent Km, 35 pmol P450, substrate 12 to 138 μM, 0.8 mM NADPH, pH 7.5, 30° C., 20 minutes
Procedure: as §5, §6

[11] = substrate: CC(C)=CCC[C@]1(C)C2C[C@@H]3[C@H](C2)C31C; test: Kinetic assay with α-santalene or β-santalene as the substrate, SaCYP76F39v1; type: biochemical, Santalum album; conditions: other: apparent Km, 17 pmol P450, substrate 12 to 138 μM, 0.8 mM NADPH, pH 7.5, 30° C., 20 minutes
Procedure: as §5, §6

[12] = substrate: C=C1[C@@H]2CC[C@@H](C2)[C@@]1(C)CCC=C(C)C; test: as above; type: biochemical, Santalum album; conditions: other: apparent Km, 17 pmol P450, substrate 12 to 138 μM, 0.8 mM NADPH, pH 7.5, 30° C., 20 minutes
Procedure: as §5, §6

## CC(C)=CCCC(C)c1ccc(C)cc1 (stereo not drawn) [α-curcumene]
[1]
  activity at 40 µM: 0%
[2]
  Use as a substrate by SaCYP76F39v1 (in words): did not use
  activity at 40 µM: 0%

## C=C1[C@@H]2CC[C@@H](C2)[C@@]1(C)CCC=C(C)C [β-santalene]
[1]
  activity at 40 µM: 17.7%
[2]
  activity at 40 µM: 100%
[3]
  Hydroxylation by SaCYP76F39v1: catalyzed the hydroxylation

## CC(C)=CCCC1(C)C2CC=C(C)C1C2 (stereo not drawn) [α-trans-bergamotene]
[4]
  Hydroxylation/oxidation by SaCYP76F38v1: catalyzed the hydroxylation
[3]
  Hydroxylation by SaCYP76F39v1: catalyzed the hydroxylation
[5]
  Products formed with SaCYP76F37v1: only (E)-α-trans-bergamotol
[6]
  Products formed with SaCYP76F39v1: (Z)- and (E)-α-trans-bergamotol

## CC(C)=CCC[C@](C)(O)C1CC=C(C)CC1 (stereo partly shown) [bisabolol]
[7]
  Products of reaction with SaCYP76F38v1: one product
[8]
  Hydroxylation by CYP76-G10 in vitro: catalyzed the hydroxylation

## C=C(CCC=C(C)C)C1CC=C(C)CC1 (stereo not drawn) [β-bisabolene]
[1]
  activity at 40 µM: 0%
[2]
  Use as a substrate by SaCYP76F39v1 (in words): did not use
  activity at 40 µM: 0%

## C=C1C2CCC(C2)[C@@]1(C)CCC=C(C)C (stereo partly drawn) [epi-β-santalene]
[3]
  Hydroxylation by SaCYP76F39v1: catalyzed the hydroxylation

## C=CC(C)(O)CCC=C(C)C (stereo not shown) [linalool]
[7]
  Products of reaction with SaCYP76F38v1: two products
[8]
  Hydroxylation by CYP76-G10 in vitro: catalyzed the hydroxylation

## C=C1C=CC(C(C)CCC=C(C)C)CC1 (stereo not drawn) [β-sesquiphellandrene]
[1]
  activity at 40 µM: 0%
[2]
  Use as a substrate by SaCYP76F39v1 (in words): did not use
  activity at 40 µM: 0%

## CC(C)=CCCC(C)(O)C1CC=C(C)CC1 (stereo not drawn) [α-bisabolol]
[1]
  activity at 40 µM: 0%
[2]
  Use as a substrate by SaCYP76F39v1 (in words): low activity
  activity at 40 µM: 9.4%

## C=CC(C)(O)CCC=C(C)CCC=C(C)C (stereo not shown) [nerolidol]
[7]
  Products of reaction with SaCYP76F38v1: two products

## C=CC(=C)CC/C=C(\C)CCC=C(C)C [trans-farnesene]
[1]
  activity at 40 µM: 0%
[2]
  Use as a substrate by SaCYP76F39v1 (in words): did not use
  activity at 40 µM: 0%

## CC(C)=CCC[C@]1(C)C2C[C@@H]3[C@H](C2)C31C [α-santalene]
[1]
  activity at 40 µM: 17.3%
[2]
  activity at 40 µM: 99.8%
[3]
  Hydroxylation by SaCYP76F39v1: catalyzed the hydroxylation
[5]
  Products formed with SaCYP76F37v1: only (E)-α-santalol
[6]
  Products formed with SaCYP76F39v1: (Z)- and (E)-α-santalol

## C=CC(C)(O)CC/C=C(\C)CCC=C(C)C (stereo not drawn) [trans-nerolidol]
[1]
  Use as a substrate by SaCYP76F37v1 (in words): selectively active
  activity at 40 µM: 11.3%
[2]
  Use as a substrate by SaCYP76F39v1 (in words): did not use
  activity at 40 µM: 0%

## CC(C)=CCCC(C)C1C=CC(C)=CC1 (stereo not shown) [zingiberene]
[1]
  activity at 40 µM: 0%
[2]
  Use as a substrate by SaCYP76F39v1 (in words): did not use
  activity at 40 µM: 0%

B1: SaCYP76F37v1 (SaCYP76-G11) (Santalum album) (protein)
chain: MDFLSCILSVLFAWALVRALPTLSRGSKAAGGRLPPGPVPLPVVGNLLKLGSKPHKSLAELAKSYGPIMCLKLGHIITIVISTPTVAKEVLQKQDVAFCNRTIPDAVRAHRHDLHSMVWLPVSTRWRTLRKISNSHIFSSQRLDENHHLRRRKLDELLTRVAESSLVGAVVDIGAVAFLTSLNLLSNTVFSKDLVEPGLGAVQEMEEVVWGITEEAGRPNLVDYFPVLRRLDPQGTRRRMMGYFGKMFEVFGDIIDERLEWRKQQSDGDSPAGTTNDVLDVLLNIIEDAEIEEKPNRTDVEHFLLDLFAAGSDTTSSTVEWAMTELLRKPETLERARSELHETIGPENLVQEADLPRLPYLQAVVKETFRLHPPVPLLLPRTAEKDAELCGFTVPAGAQIMVNAWAIGRDPGTWEDPESFLPERFLGSDVDVKGRSFELIPFGGGRRICPGLPLAIRMVHLMLGSLIHGFRWKVDDDGMGSPETAMDMDEKFGITLQKAKPLCAVPIRG
[9]
  Km: 133 ± 0.41 µM
  kcat: 0.2 s⁻¹
  kcat/Km: 1500 M⁻¹ s⁻¹
[10]
  Km: 157 ± 0.17 µM
  kcat: 0.13 s⁻¹
  kcat/Km: 810 M⁻¹ s⁻¹

B2: SaCYP76F39v1 (SaCYP76-G10) (Santalum album) (protein)
chain: MDFLSCILFVLFAWALVRALPTLSRGSKAASGRLPPGPVPWPVVGNLLKLGNKPHKSLAELAKSYGPIMCLKLGHMTTIVISTPTVAKEVLQKQDVAFSNRTTPDAVRAHGHDLYSMAWLPVSTRWRTLRKISNSHIFTSQRLDENHHLRRRKLDELLARVAESSLVGAVVDMGAVAFLTSLNLLSNTVFSKDLVEPGLGAVQETKEVVWGMMEEAGRPNLVDYFPVLRRLDPQGIRRRMTGYFGKMLEVFGDIIDERLEWRKQQSDGDSPAGTTNDVLDVLLNIIEDAEIEEKPNRTDVEHFLLDLFAAGSDTTSSTVEWAMTELLRKPETLERARSELHETIGPENLVQEADLPRLPYLQAVVKETFRLHPPVPLLLPRTAEKDAELCGFTVPAGAQIMVNAWAIGRDPGTWEDPESFLPERFLGSDVDVKGRSFELIPFGGGRRICPGLPLAIRMVHLMLGSLIHGFRWKVDDDGMGSPETAMDMDEKFGITLQKAKPLCAVPIRG
[11]
  Km: 25.92 ± 0.11 µM
  kcat: 1.12 s⁻¹
  kcat/Km: 43000 M⁻¹ s⁻¹
[12]
  Km: 34.82 ± 0.41 µM
  kcat: 1.17 s⁻¹
  kcat/Km: 33000 M⁻¹ s⁻¹
